Assays:
B16BL6 melanoma cells = experiment: 3D collagen culture viability dose response, B16BL6; format: cell-based, murine; settings: B16BL6, 3D collagen matrix
Experimental: (§1) Y-axis is the viability ratio where 1=100% viability, and 0=0% viability. The lines are non-linear fits, which are used to show the best fit curves. Those same fits are also used to calculate IC50 values. RMIC (where applicable) and DMSO are indicated as separate dots.
(§2) FIG. 1 panels A-F show the effect of SU11652 on BRAF V600E mutant (A375, M481) and BRAF-WT (M405, M498) as well as B16BL6 and B16F10 melanoma cells. The indicated cell line was cultured in collagen matrix to create physiologically relevant 3D culture conditions. The drug treatment was applied for 72 h and the response quantified. Three types of signal were measured using three different markers: apoptosis (CellEvent Caspase 3/7), permeabilized cell nuclei (ethidium homodimer), and all nuclei (Hoechst 33342) using an epifliorescence microscope. Each well of a 96-well plate was imaged at three different locations, with a z-step size of 2 μm for 251 steps to cover the entire height at that location. […] To resolve overlaps, we used the following precedence: permeabilization indicates cell death thus overwrites both other channels; in the absence of permeabilization, apoptosis marker overrides the Hoechst nuclear stain. These absolute pixel counts signal were converted to a relative viability signal by calculating the ratio of ethidium homodimer plus apoptosis signal to the total nuclear stain signal. […]

B16F10 melanoma cells = experiment: 3D collagen culture viability dose response, B16F10; format: cell-based, murine; settings: B16F10, 3D collagen matrix
Experimental: as §1, §2

[1] = system: human peripheral blood mononuclear cells (PBMC); experiment: Viability of PBMC in suspension culture; format: cell-based
Experimental: The data was collected and plotted using the same methodology as FIG. 1. […] These cells were cultured in suspension in 24 well ultra-low adhesion dishes, seeded at 100,000 cells per well. After 72 h of SU11652 treatment, the cells were imaged and the images were quantified using CellProfiler V2.2. For both panels, since the highest dose administered was 10 μM, estimating IC50 above that dose is theoretical and thus unreliable so IC50>10 μM is indicated in those cases.
Human peripheral blood mononuclear cells (PBMC) were used to assess the impact of SU11652 on the viability of a collection of normal, healthy immune cells of the human body. Cells were isolated from the buffy coats obtained from healthy adult human blood. After culture in ultra-low adhesion dishes, the cells were treated with different doses of SU11652 for 72 hours.

A375 melanoma cells = system: A375 melanoma cells
Experimental: A375 cells were subcutaneously implanted at 3 million cells per mice with matrigel in the lower back of the mice. Once the tumors were palpable (150-200 mm^3), the mice were randomized and drug treatment was initiated. The mice were treated with vehicle control, 20 mg/kg sunitinib, 20 mg/kg SU11652, 50 mg/kg dabrafenib+0.5 mg/kg trametinib. The mice were treated with drugs daily for the duration of the experiment. Tumor sizes were assessed twice weekly using caliper measurement, and tumor volume was calculated using the formula (length×width^2×π)/6. Mice were euthanized when the tumor volume exceeded 1250 mm^3 or when necessary for animal welfare. The drug was dissolved in 0.5% w/v carboxymethylcellulose sodium, 1.8% w/v NaCl, 0.4% w/v Tween-80, 0.9% w/v benzyl alcohol. All mice were sacrificed before tumor weight exceeded 10% of body weight.
6-8 week old Nod-Scid IL2Rγ KO mice (NSG) were implanted at a single subcutaneous site with 3×10^6 A375 or M405 melanoma cells (FIGS. 6 and 9, respectively) in matrigel (0.2 ml). When tumors reached approximately 150-200 mm^3 (day 11 post tumor cell implantation for A375 cells; day 21 post tumor cell implantation for […]), therapy was initiated. For A375 melanoma cells, treatment was with 20 mg/kg SU11652, 20 mg/kg Sunitinib, 50 mg/kg Debrafenib/0.5 mg/kg Trametinib or vehicle only (0.5% CMC/1.8% NaCl/0.4% Tween80/0.9% Benzyl Alcohol) at 0.2 ml/mouse PO qd. For M405 cells, treatment was with 20 mg/kg SU11652, 20 mg/kg Sunitinib or vehicle only (0.5% CMC/1.8% NaCl/0.4% Tween80/0.9% Benzyl Alcohol) at 0.2 ml/mouse PO qd. Compounds were administered as homogenous slurries after sonication (and heating at 60° C. for debrafenib/trametinib). Mice were weighed daily and tumors were measured with calipers twice weekly. Tumor volume was calculated as (L×W^2×pi)/6. When tumor volume reached >1250 mm^3 or if mice appeared moribund, they were euthanized and tumors immediately collected and snap frozen. […] All mice not previously euthanized were sacrificed on day 43 (A375 cells) or day 59 (M405 cells).
Tumor growth was evaluated as described in Evans (Evans et al., Cancer Immunol Res. 2015 June; 3(6):689-701). Time to endpoint (TTE) was determined by extrapolating the day on which tumors reached 1250 mm^3 from log-transformed tumor growth data sets. […] The median TTE was calculated for the group and tumor growth delay (TGD) defined as the increase in the median TTE in a treatment group compared to the control group, using the formula: % TGD=((T−C)/C)×[…]. […] The average % TGI was calculated for treatment days when all animals were still present. Mean tumor volumes±SEM were plotted and the difference between treated and control evaluated by Student's unpaired t-test (GraphPad QuickCalcs).

[2] = system: RAC1^P29S knock-in A375 cell line; experiment: Cytotoxic and cytostatic activity, RAC1 P29S knock-in A375; format: cell-based; settings: RAC1 P29S knock-in A375, addition of SU11652 to RMIC
Description: (§3) Two new cell lines were used to shed insight into the relationship between RAC1 signaling and SU11652 activity. The first cell line used was IGR1 which is RAC1^P29S. […] The second new cell line was a knock-in RAC1P29S variant of A375 which allows direct comparisons between RAC1^WT and RAC1P29s melanoma.

[3] = system: IGR1 (RAC1^P29S) cell line; experiment: Cytotoxic and cytostatic activity, IGR1; format: cell-based; settings: IGR1, addition of SU11652 to RMIC
Description: as §3

[4] = A375, 20 mg/kg PO daily, compared with sunitinib

CCN(CC)CCNC(=O)c1c(C)[nH]c(/C=C2\C(=O)Nc3ccc(Cl)cc32)c1C [SU11652, 5-[(Z)-(5-chloro-2-oxo-1,2-dihydro-3H-indol-3-ylidene)methyl]-N-[2-(diethylamino)ethyl]-2,4-dimethyl-1H-pyrrole-3-carboxamide]
cytotoxic effect (viability ratio dose response) (B16BL6 melanoma cells): broadly cytotoxic to melanoma cells | cytotoxic effect (viability ratio dose response) (B16F10 melanoma cells): broadly cytotoxic to melanoma cells | viability of PBMCs ([1]; 72 hours, ultra-low adhesion dishes): did not reduce the viability of PBMCs at the tested doses | IC50 ([1]; Homo sapiens, PBMC, suspension, 72 h, highest dose administered 10 μM): > 10 µM | average tumor growth inhibition (A375 melanoma cells; [4]): better average tumor growth inhibition | tumor growth delay (A375 melanoma cells; [4]): greater tumor growth delay | time to endpoint (A375 melanoma cells; A375, 20 mg/kg PO daily, endpoint 1250 mm^3, compared with sunitinib): longer time to endpoint | toxicity leading to weight loss (A375 melanoma cells; mouse, in vivo): did not incur a major toxicity that would lead to weight loss | cytostatic activity [2]: caused both cytotoxic and cytostatic effect | cytotoxic activity [2]: caused both cytotoxic and cytostatic effect | cytostatic activity [3]: caused both cytotoxic and cytostatic effect | cytotoxic activity [3]: caused both cytotoxic and cytostatic effect

— patent US20230355581A1, “METHODS OF TREATMENT FOR MELANOMA” (THE BOARD OF REGENTS OF THE UNVERSITY OF TEXAS SYSTEM, priority 2020, published 2023)
